pIC50: −log10 of the molar value.

One test is filed under the species Mus musculus. In words: Hydroxyl radical scavenging activity by chemiluminescence technique in mouse thymus cells. In kind it is functional.
Settings: not given
Compound `NC(N)=S` [THIOUREA] returned an IC50 of 1200 uM l-1.

For `O=C(O)c1ccccc1` [BENZOIC ACID], the IC50 is on record as 16600 uM l-1. Same read-out and setting: the same measure for `OC[C@@H](O)[C@@H](O)[C@H](O)[C@H](O)CO` [MANNITOL]: 13800 uM l-1.

Consider `O=C([O-])CCNC12c3c4c5c6c7c8c(c9c%10c1c1c3c3c%11c4c4c5c5c7c7c%12c8c8c9c9c%10c%10c1c1c3c3c%11c%11c4c4c5c7c5c7c%12c8c8c9c9c%10c1c1c3c3c%11c4c5c4c7c8c9c1c34)C62.[Na+]` (stereo unspecified), for which the IC50 turned out to be 147.2 uM l-1.

Staying with this test, now noted: Mus musculus; read-out: IC50.
The term pIC50 denotes the IC50 on a negative log10 scale, so that one unit is a factor of ten. `CN(CCC(=O)O)C12C3=C4c5c6c7c8c9c%10c%11c%12c%13c%14c%15c%16c%17c%18c(c5c8c(c%15%18)c%139)C4(NCCC(=O)O)C4C=%17C5(NCCC(=O)O)C(=C8c9c1c1c%13c%15c%17c%18c%19c%20c%21c(c8c%19c9%15)C5C=%16C%21(NCCC(=O)O)C%14C%12(NCCC(=O)O)C%20C%18(NCCC(=O)O)C%11C5(NCCC(=O)O)C%17C%13=C(C6(NCCC(=O)O)C31)C7(NCCC(=O)O)C%105)C42` (stereo unspecified): the pIC50 was 4.02. For `CN(CCC(=O)O)C12C3=c4c5c6c7c8c9c%10c%11c%12c%13c%14c%15c%16c%17c%18c%19c%20c(c4c4c5c8c(c%139)c(c%14%18)c%194)C4(NCCC(=O)O)C5=c8c9c(c-%16c%13c%14c%16c(c-%11c%11c%18c(c%19c1c(c8c(c9%14)c%19c%18%16)C34)=C(C62)C7(NCCC(=O)O)C%11%10)C%13C%12%15NCCC(=O)O)C%17C5%20NCCC(=O)O` (stereo unspecified), the pIC50 was 4.12.

The record behind these values is ChEMBL document CHEMBL1137956, “Different hydroxyl radical scavenging activity of water-soluble beta-alanine C60 adducts” (Bioorg Med Chem Lett, 2004).
